Legend:
Clk4 [1] = target: T1, Clk4 (Homo sapiens, UniProt Q9HAZ1); details: cited from earlier work
Clk1 = Clk1 (Homo sapiens, UniProt P49759); details: cited from earlier work
Clk4 [2] = target: T1, Clk4; assay: bioluminescent, luciferase-based Clk4 assay
Dyrk1A = Dyrk1A (Homo sapiens, UniProt Q13627); assay: Dyrk1A inhibition; type: biochemical; details: data not shown

T1 sequence (Q9HAZ1 whole entry): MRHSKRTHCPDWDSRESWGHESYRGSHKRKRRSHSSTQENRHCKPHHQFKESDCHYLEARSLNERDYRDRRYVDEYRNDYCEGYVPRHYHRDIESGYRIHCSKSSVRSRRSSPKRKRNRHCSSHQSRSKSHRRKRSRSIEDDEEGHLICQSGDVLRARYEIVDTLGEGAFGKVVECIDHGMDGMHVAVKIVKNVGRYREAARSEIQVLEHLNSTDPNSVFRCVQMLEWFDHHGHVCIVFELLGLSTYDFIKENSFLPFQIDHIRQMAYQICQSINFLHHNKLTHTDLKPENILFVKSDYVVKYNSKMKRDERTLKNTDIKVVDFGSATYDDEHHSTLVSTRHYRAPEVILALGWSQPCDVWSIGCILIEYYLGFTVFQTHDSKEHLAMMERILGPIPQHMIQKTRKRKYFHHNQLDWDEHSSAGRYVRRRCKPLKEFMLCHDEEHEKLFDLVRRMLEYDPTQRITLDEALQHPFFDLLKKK
Clk1, sequence (P49759 whole entry): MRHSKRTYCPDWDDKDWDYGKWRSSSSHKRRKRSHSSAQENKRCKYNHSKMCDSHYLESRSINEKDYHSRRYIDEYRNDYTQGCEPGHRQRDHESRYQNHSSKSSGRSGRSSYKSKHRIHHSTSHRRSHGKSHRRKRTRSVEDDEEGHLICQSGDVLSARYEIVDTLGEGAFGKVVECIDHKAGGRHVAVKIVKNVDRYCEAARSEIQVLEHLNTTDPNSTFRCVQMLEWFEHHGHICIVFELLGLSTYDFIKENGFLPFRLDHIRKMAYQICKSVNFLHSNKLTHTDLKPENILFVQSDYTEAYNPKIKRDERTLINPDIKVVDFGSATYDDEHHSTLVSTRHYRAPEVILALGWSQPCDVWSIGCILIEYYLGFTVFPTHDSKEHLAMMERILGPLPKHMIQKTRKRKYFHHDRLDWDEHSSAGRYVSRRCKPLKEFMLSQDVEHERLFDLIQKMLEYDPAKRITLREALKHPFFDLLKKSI

| enzyme inhibition in ATP dose response (Clk4 [2]; compound constant at 70 nM, high ATP concentrations (>200 μM), data not shown) | potency in peptide dose response (Clk4 [2]; compound constant at 70 nM, increasing dose of peptide, data not shown) | change of potency with ATP concentration (Clk4 [2]; dose response at 1, 50, 100 μM ATP (Figure 4A)) | change of potency with peptide substrate concentration (Clk4 [2]; dose response at 50, 100, 200 μM peptide (Figure 4B)) | inhibition of Dyrk1A (Dyrk1A) | Structure (SMILES) | IC50 values versus Clk4 (Clk4 [1]) | IC50 values versus Clk1 (Clk1) | activity versus numerous EGFR mutants (EGFR mutants) [nM] |
| --- | --- | --- | --- | --- | --- | --- | --- | --- |
| – | – | – | – | – | CCN1/C(=C/C(C)=O)Sc2ccc(OC)cc21 [compound 1] | low-nanomolar | low-nanomolar | – |
| sharp decline in enzyme inhibition | did not effect the potency | loss in potency when ATP levels rise | no affect on the compound potency | potent inhibitors | c1csc(CNc2ncnc3ccc(-c4ccc5c(c4)OCO5)cc23)c1 [compound 4] | – | – | > 250 |
